Data reported in patent US11166460B2, “α-amino acrylate microbicide, and preparation method therefor and uses thereof” (priority 2017, dated 2021).
Converted amounts (≈) assume the structure as drawn. Like-named read-outs stand apart in the source and are kept apart here.

Legend:
Cercospora arachidicola = assay: Fungicidal activity, fungi growth rate method, CA; type: cell-based; conditions: Mycosphaerella arachidis, 50 μg/mL
[1] = test system: tobacco mosaic virus (TMV); assay: Anti-TMV inducing activity (induction mode), tobacco seedlings; type: in vivo; conditions: Tobacco mosaic virus, read-out: Anti-TMV activity, Induction effect (inhibition), 100 μg/mL, tobacco seedlings
Rhizoctonia cerealis = assay: Fungicidal activity, fungi growth rate method, RC; type: cell-based; conditions: Ceratobasidium cereale, 50 μg/mL
wheat Gibberella zeae = assay: microbe, parasite or virus in culture; type: cell-based; conditions: Fusarium graminearum
[2] = test system: Phytophthora infestans (Mont) de Bary; assay: microbe, parasite or virus in culture; type: cell-based; conditions: Phytophthora infestans
Botrytis cinerea = assay: Fungicidal activity, fungi growth rate method, BC; type: cell-based; conditions: Botrytis cinerea, 50 μg/mL
Physalospora piricola = assay: Fungicidal activity, fungi growth rate method, PP; type: cell-based; conditions: 50 μg/mL
Pellicularia sasakii = assay: Fungicidal activity, fungi growth rate method, PS; type: cell-based; conditions: 50 μg/mL
Sclerotinia sclerotiorum = assay: microbe, parasite or virus in culture; type: cell-based; conditions: Sclerotinia sclerotiorum; for inhibition at 50 µg/mL: 50 μg/mL; for EC90: read-out: EC90 against S. sclerotiorum in vitro
Alternaria solani = assay: Fungicidal activity, fungi growth rate method, AS; type: cell-based; conditions: Alternaria solani, 50 μg/mL
[3] = test system: tobacco mosaic virus (TMV); assay: Anti-TMV curative activity (treatment mode), live friction inoculation on tobacco seedlings; type: in vivo; conditions: Tobacco mosaic virus, read-out: Anti-TMV activity, Curative effect (inhibition), 100 μg/mL, tobacco seedlings, checked on seventh day
[4] = test system: tobacco mosaic virus (TMV); assay: Anti-TMV inactivation activity (inactivation mode), compound mixed with TMV before inoculation of tobacco leaves; type: in vivo; conditions: Tobacco mosaic virus, read-out: Anti-TMV activity, Inactivation effect (inhibition)
[5] = test system: tobacco mosaic virus (TMV); assay: Anti-TMV protective activity (protection mode), live friction inoculation on tobacco seedlings; type: in vivo; conditions: Tobacco mosaic virus, read-out: Anti-TMV activity, Protection effect (inhibition)
[6] = read-out: Fungicidal activity, inhibition, CA
[7] = read-out: Fungicidal activity, inhibition, RC
[8] = read-out: Fungicidal activity, inhibition, GZ
[9] = read-out: Fungicidal activity, inhibition, PI
[10] = read-out: Fungicidal activity, inhibition, BC
[11] = read-out: Fungicidal activity, inhibition, PP
[12] = read-out: Fungicidal activity, inhibition, PS
[13] = read-out: Fungicidal activity (inhibition) against SS: Sclerotinia sclerotiorum
[14] = read-out: Fungicidal activity, inhibition, SS
[15] = read-out: Fungicidal activity, inhibition, AS
[16] = read-out: Fungicidal activity (inhibition) against PI: Phytophthora infestans (Mont) de Bary
[17] = read-out: Fungicidal activity (inhibition) against BC: Botrytis cinerea
[18] = read-out: Fungicidal activity (inhibition) against AS: Alternaria solani
[19] = read-out: Fungicidal activity (inhibition) against PS: Pellicularia sasakii

SMILES | inhibition at 50 µg/mL (Cercospora arachidicola; [6]) [%] | inhibition at 100 µg/mL [1] [%] | inhibition at 50 µg/mL (Rhizoctonia cerealis; [7]) [%] | inhibition at 50 µg/mL (wheat Gibberella zeae; [8]) [%] | inhibition at 50 µg/mL [2, 9] [%] | inhibition at 50 µg/mL (Botrytis cinerea; [10]) [%] | inhibition at 50 µg/mL (Physalospora piricola; [11]) [%] | inhibition at 50 µg/mL (Pellicularia sasakii; [12]) [%] | inhibition at 50 µg/mL (Sclerotinia sclerotiorum; [13]) [%] | inhibition at 50 µg/mL (Sclerotinia sclerotiorum; [14]) [%] | melting point [°C] | inhibition at 50 µg/mL (Alternaria solani; [15]) [%] | inhibition at 100 µg/mL [3] [%] | inhibition at 100 µg/mL [4] [%] | inhibition at 100 µg/mL [5] [%] | EC90 (Sclerotinia sclerotiorum) [µg/mL] | inhibition at 50 µg/mL [2, 16] [%] | inhibition at 50 µg/mL (Botrytis cinerea; [17]) [%] | other results
COc1ccc(C(=O)N/C(=C\c2ccccc2)C(=O)N2CCC(O)(c3ccc(Br)cc3)CC2)cc1 [Compound 5, (Z)-N-[1-[[4-(4-bromophenyl)-4-hydroxy-1-piperidinyl]carbonyl]-2-phenylethenyl]-4-methoxybenzamide] | 9 | 2 | 7 | 11 | 18 | 13 | 7 | 13 | 60 to 80 | 80 | 195 to 197 | 13 | 1 | 49 | 48 | – | – | – | –
O=C(N/C(=C\c1ccccc1C(F)(F)F)C(=O)N1CCC(O)(c2ccc(Br)cc2)CC1)c1ccccc1 [Compound 22] | 25 | 22 | 26 | 28 | 5 | 8 | 8 | 15 | 100 | 100 | 149 to 151 | 12 | 59 | 58 | 0 | 199 (≈ 347 µM) | – | – | –
O=C(N/C(=C\c1ccccc1)C(=O)N1CCC(O)(c2ccc(Br)cc2)CC1)c1ccc(Br)cc1 [Compound 8, (Z)-N-[1-[[4-(4-bromophenyl)-4-hydroxy-1-piperidinyl]carbonyl]-2-phenylethenyl]-4-bromobenzamide] | 18 | 50 | 23 | 29 | 26 | 18 | 6 | 20 | – | 50 | 186 to 188 | 21 | 0 | 19 | 1 | – | – | – | –
O=C(N/C(=C\c1ccccc1)C(=O)N1CCC(O)(c2ccc(Br)cc2)CC1)c1cccc([N+](=O)[O-])c1 [Compound 11, (Z)-N-[1-[[4-(4-bromophenyl)-4-hydroxy-1-piperidinyl]carbonyl]-2-phenylethenyl]-3-nitrobenzamide] | 25 | 33 | 24 | 34 | 14 | 12 | 21 | 8 | 100 | 100 | 128 to 129 | 24 | 78 | 71 | 5 | 127 (≈ 232 µM) | – | – | –
O=C(N/C(=C\c1ccc(Br)cc1)C(=O)N1CCC(O)(c2ccc(Br)cc2)CC1)c1ccccc1 [Compound 19, (Z)-N-[1-[[4-(4-bromophenyl)-4-hydroxy-1-piperidinyl]carbonyl]-2-(4-bromophenyl)ethenyl]benzamide] | 3 | 0 | 19 | 5 | 27 | 4 | 16 | 12 | – | 44 | 147 to 148 | 21 | 0 | 0 | 46 | – | – | – | –
Cc1snnc1/C=C1\N=C(c2ccccc2)OC1=O [Compound 78, (4Z)-4-[4-(5-methyl-1,2,3-thiadiazol)ethenyl]-2-phenyl-1,3-oxazol-5-(4H)-one] | 21 | 68 | 18 | 57 | 26 | 26 | 15 | 3 | – | 53 | 149 to 151 | 29 | 0 | 47 | 0 | – | 26 | 26 | inhibition at 50 µg/mL (wheat Gibberella zeae; read-out: Fungicidal activity (inhibition) against GZ: wheat Gibberella zeae): 57%; inhibition at 50 µg/mL (Alternaria solani; [18]): 29%
Cc1nnsc1/C=C(\NC(=O)c1ccccc1)C(=O)N1CCC(O)(c2ccc(Br)cc2)CC1 [Compound 27, (Z)-N-[1-[[4-(4-bromophenyl)-4-hydroxy-1-piperidinyl]carbonyl]-2-[5-(4-methyl-1,2,3-thiadiazol)]ethenyl]benzamide] | 12 | 0 | 23 | 57 | 24 | 26 | 12 | 20 | – | 47 | 212 to 214 | 21 | 3 | 34 | 37 | – | ~20 | ~20 | inhibition at 50 µg/mL (Pellicularia sasakii; [19]): ~20%
O=C(NCc1ccc(Br)cc1)/C(=C/c1ccccc1)NC(=O)C1CCCCC1 [Compound 60, N-[(1Z)-2-phenyl-1-[[(4-bromophenylmethyl)amino]carbonyl]ethenyl]cyclohexanecarboxamide] | 18 | 18 | 23 | 57 | 16 | 18 | 12 | 9 | – | 38 | 215 to 216 | 21 | 16 | 53 | 28 | – | – | – | –
O=C(N/C(=C\c1ccccc1)C(=O)N1CCC(c2nc(CO)cs2)CC1)c1ccccc1 [Compound 31, (Z)-N-[1-[[[4-[2-(4-hydroxymethylthiazol)]]-1-piperidinyl]carbonyl]-2-phenylethenyl]benzamide] | 23 | 33 | 16 | 7 | 24 | 7 | 0 | 5 | – | 56 | 118 to 120 | 21 | 0 | 0 | 0 | – | – | – | –
CONC(=O)/C(=C/c1csc(C2CCN(C(=O)OC(C)(C)C)CC2)n1)NC(=O)c1ccccc1 [Compound 42, (Z)-N-[1-[(methoxylamino)carbonyl]-2-[4-[2-[4-(1-Boc-piperidine)]thiazol]]ethenyl]benzamide] | 44 | 20 | 45 | 42 | 44 | 53 | 44 | 43 | – | 93 | 111 to 113 | 63 | 0 | 0 | 41 | 155 (≈ 318 µM) | 44 | 53 | inhibition at 50 µg/mL (Cercospora arachidicola; read-out: Fungicidal activity (inhibition) against CA: Cercospora arachidicola): 44%; inhibition at 50 µg/mL (Rhizoctonia cerealis; read-out: Fungicidal activity (inhibition) against RC: Rhizoctonia cerealis): 45%; inhibition at 50 µg/mL (Physalospora piricola; read-out: Fungicidal activity (inhibition) against PP: Physalospora piricola): 44%; inhibition at 50 µg/mL (Pellicularia sasakii; [19]): 43%; inhibition at 50 µg/mL (Alternaria solani; [18]): 63%
